Results reported in article doi:10.64898/2025.12.04.692396, “Mechanisms of ligand recognition and channel opening for P2X2 receptors in lipid nanodiscs” (bioRxiv, 2025).
Substitutions are numbered along the chain they refer to.

Tests used:
Assay type in all cases: cell-based
[1] = molecular target: T1, hP2X2R (human P2X2 receptor) (Homo sapiens, UniProt Q9UBL9); assay: cryo-EM structure in nanodiscs; whole-cell patch clamp EC50 in EDTA ([…] with divalent cations)
T1 construct: gene P2RX2; hP2X2-L (Q9UBL9-1) with ATP4−; hP2X2-S (Q9UBL9-2) with Mg-ATP2−; homotrimer in MSP1E3D1 lipid nanodiscs
T1 sequence (Q9UBL9 1-404 isoform Q9UBL9-2): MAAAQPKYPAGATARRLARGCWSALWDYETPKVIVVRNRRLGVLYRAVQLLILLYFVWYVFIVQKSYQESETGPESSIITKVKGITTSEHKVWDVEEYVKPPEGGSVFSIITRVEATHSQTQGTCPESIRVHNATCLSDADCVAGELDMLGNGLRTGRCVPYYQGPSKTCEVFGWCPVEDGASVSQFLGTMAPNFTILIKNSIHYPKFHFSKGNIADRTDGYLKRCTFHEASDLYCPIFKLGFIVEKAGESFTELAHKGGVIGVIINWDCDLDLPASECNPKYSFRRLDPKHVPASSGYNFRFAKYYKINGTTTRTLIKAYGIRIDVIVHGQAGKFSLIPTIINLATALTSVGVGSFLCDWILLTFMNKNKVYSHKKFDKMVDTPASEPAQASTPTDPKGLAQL

[2] = molecular target: T2, hP2X2R (human P2X2 receptor) (Homo sapiens, UniProt Q9UBL9, R130E); assay: whole-cell patch clamp in HEK293 cells, EDTA solution
T2 construct: gene P2RX2; hP2X2-L
T2 sequence (Q9UBL9 1-471 R130E): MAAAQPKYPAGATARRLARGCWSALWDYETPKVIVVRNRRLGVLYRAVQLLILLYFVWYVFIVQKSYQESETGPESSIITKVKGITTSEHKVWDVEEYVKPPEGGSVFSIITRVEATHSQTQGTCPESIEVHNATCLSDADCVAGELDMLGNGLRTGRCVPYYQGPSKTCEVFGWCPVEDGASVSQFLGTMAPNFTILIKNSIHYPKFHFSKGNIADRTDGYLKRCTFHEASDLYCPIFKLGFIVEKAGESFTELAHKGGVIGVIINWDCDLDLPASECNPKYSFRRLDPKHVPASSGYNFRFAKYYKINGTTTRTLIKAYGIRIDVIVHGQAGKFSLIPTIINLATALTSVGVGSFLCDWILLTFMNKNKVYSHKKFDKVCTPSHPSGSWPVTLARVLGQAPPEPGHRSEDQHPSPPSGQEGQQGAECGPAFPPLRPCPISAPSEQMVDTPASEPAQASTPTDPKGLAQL

[3] = molecular target: T3, hP2X2R (human P2X2 receptor) (Homo sapiens, UniProt Q9UBL9, R130A); assay: as above
T3 construct: gene P2RX2; hP2X2-L
T3 sequence (Q9UBL9 1-471 R130A): T2 sequence (Q9UBL9 1-471 R130E) with E130A

[4] = molecular target: T3, hP2X2R (human P2X2 receptor)
[5] = molecular target: T4, hP2X2R (human P2X2 receptor) (Homo sapiens, UniProt Q9UBL9)
T4 construct: gene P2RX2; hP2X2-L
T4 sequence (Q9UBL9 1-471): T2 sequence (Q9UBL9 1-471 R130E) with E130R

Row | SMILES | EC50 [1] [µM] | EC50 [2] [µM] | EC50 [3] [µM] | whole-cell patch clamp in HEK293 cells (weak activation) [4] | whole-cell patch clamp in HEK293 cells (weak activation) [5]
1 | Nc1ncnc2c1ncn2[C@@H]1O[C@H](COP(=O)(O)OP(=O)(O)OP(=O)(O)O)[C@@H](O)[C@H]1O [ATP] | 1.4 ± 0.4 | 4 ± 0.9 | 3.7 ± 0.9 |  | 
2 | Nc1ncnc2c1ncn2[C@@H]1O[C@H](COP(=O)(O)CP(=O)(O)OP(=O)(O)O)[C@@H](O)[C@H]1O [α,β-Methylene-ATP] |  |  |  | α,β-Methylene-ATP could only weakly activate either WT hP2X2 or the R130A mutant | α,β-Methylene-ATP could only weakly activate either WT hP2X2 or the R130A mutant
